The target in assay [1] is Cyclin-dependent kinase 1/cyclin B1 (Homo sapiens, UniProt P06493). The assay is described as follows: Inhibition of recombinant full length human His-tagged CDK1/CyclinB expressed in baculovirus expression system using serine/threonine-18 peptide as substrate incubated for 60 mins in presence of ATP by Z'-LYTE assay.
Assay [2] deals with Cytoplasmic tyrosine-protein kinase BMX (Homo sapiens, UniProt P51813). In words: Inhibition of recombinant full length human His-tagged BMX cytoplasmic domain expressed in baculovirus expression system using tyrosine-1 peptide as substrate incubated for 60 mins in presence of ATP by Z'-LYTE assay.
Assay [3] has as its target Serine/threonine-protein kinase pim-2 (Homo sapiens, UniProt Q9P1W9). The assay is described as follows: Inhibition of recombinant full length GST-tagged human PIM2 expressed in baculovirus expression system using Ser/Thr 07 as substrate after 1 hr in presence of ATP by Z'-LYTE assay.
Another assay concerns the target Sphingosine kinase 2 (Homo sapiens, UniProt Q9NRA0). In words: Inhibition of recombinant full length GST-tagged human SPHK2 expressed in baculovirus expression system using Sphingosine lipid as substrate in presence of ATP after 1 hr by Adapta assay.
For assay [4], the target named is Mitogen-activated protein kinase kinase kinase 9 (Homo sapiens, UniProt P80192). The assay is described as follows: Inhibition of recombinant human GST-tagged MAP3K9 catalytic domain expressed in baculovirus expression system using serine/threonine-7 peptide as substrate incubated for 60 mins in presence of ATP by Z'-LYTE assay.
Another assay has as its target Rhodopsin kinase GRK7 (Homo sapiens, UniProt Q8WTQ7). The assay is described as follows: Inhibition of recombinant full length human GST-tagged GRK7 expressed in baculovirus expression system using serine/threonine-16 peptide as substrate incubated for 60 mins in presence of ATP by Z'-LYTE assay.
The target of assay [5] is Platelet-derived growth factor receptor beta (Homo sapiens, UniProt P09619). In words: Inhibition of recombinant human His-tagged PDGFRbeta cytoplasmic domain expressed in baculovirus expression system using tyrosine-4 peptide as substrate incubated for 60 mins in presence of ATP by Z'-LYTE assay.
Assay [6] concerns the target Platelet-derived growth factor receptor alpha (Homo sapiens, UniProt P16234, T674I). The assay is described as follows: Inhibition of recombinant human GST-tagged PDGFRalpha cytoplasmic domain (550 to 1089 residues) harboring T674I mutant expressed in baculovirus expression system using tyrosine-4 peptide as substrate incubated for 60 mins in presence of ATP by Z'-LYTE assay.

For assay [7], the target named is Tyrosine-protein kinase ABL1 (Homo sapiens, UniProt P00519, E255K). The assay is described as follows: Inhibition of recombinant full length human His-tagged ABL1 E255K mutant cytoplasmic domain expressed in baculovirus expression system using tyrosine-2 peptide as substrate incubated for 60 mins in presence of ATP by Z'-LYTE assay.
For assay [8], the target named is Tyrosine-protein kinase FRK (Homo sapiens, UniProt P42685). In words: Inhibition of recombinant full length GST-tagged human FRK expressed in baculovirus expression system using tyrosine 1 as substrate after 1 hr in presence of ATP by ZYLTE assay.
For assay [9], the target named is cGMP-dependent protein kinase 1 (Homo sapiens, UniProt Q13976). The assay is described as follows: Inhibition of recombinant full length human GST-tagged PRKG1 expressed in baculovirus expression system using serine/threonine-01 peptide as substrate incubated for 60 mins in presence of ATP by Z'-LYTE assay.
Assay [10] has as its target Leucine-rich repeat serine/threonine-protein kinase 2 (Homo sapiens, UniProt Q5S007, G2019S). In words: Inhibition of recombinant human GST-tagged LRRK2 G2019S mutant catalytic domain (970 to 2527 residues) expressed in baculovirus expression system using LRRKtide as substrate measured after 1 hr in presence of ATP by ADAPTA assay.
The target in assay [11] is Melanin-concentrating hormone receptor 1 (Homo sapiens) (UniProt Q99705). In words: Displacement of [125I]Tyr-S36057 from full length human recombinant SLC1 receptor expressed in CHO-K1 cells at 10 uM measured after 120 mins by radiometric scintillation analysis relative to control. The assay is classed as cell-based. In general terms: Displacement assays read how much labelled ligand stays bound in the presence of the test substance.

In assay [12] the target is GABA-A receptor; anion channel (Rattus norvegicus) (UniProt O09028+P15431+P18506+P18508+P19969+P20236+P23574+P23576+P28471+P28473+P30191+P62813+P63079+P63138+Q91ZM7+Q9ES14). The assay is described as follows: Displacement of [3H]-Ro15-1788 from GABA(A) receptor in Wistar rat hippocampus at 10 uM incubated for 120 mins by radiometric scintillation analysis relative to control. The assay is classed as tissue-based.

Assay [13] deals with Phosphorylase b kinase gamma catalytic chain, skeletal muscle/heart isoform (Homo sapiens, UniProt Q16816). In words: Inhibition of recombinant full length human GST-tagged PHKG1 expressed in baculovirus expression system using serine/threonine-7 peptide as substrate incubated for 60 mins in presence of ATP by Z'-LYTE assay.
Assay [14] addresses Retinoic acid receptor RXR-alpha (Homo sapiens) (UniProt P19793). In words: Displacement of [3H]-9-cis-Retinoic acid from human recombinant RXRalpha receptor LBD domain expressed in Escherichia coli at 10 uM measured after 16 hrs by radiometric scintillation analysis relative to control.
Assay [15] addresses Tyrosine-protein kinase ZAP-70 (Homo sapiens, UniProt P43403). In words: Inhibition of recombinant full length human His-tagged ZAP70 cytoplasmic domain expressed in baculovirus expression system using fluorophore-labeled tyrosine-07 peptide as substrate incubated for 60 mins in presence of ATP by Z'-LYTE assay.
Assay [16] concerns the target Substance-K receptor (Homo sapiens) (UniProt P21452). The assay is described as follows: Inhibition of human NK2 receptor at 10 uM relative to control.
Assay [17] deals with Calcium/calmodulin-dependent protein kinase type II subunit alpha (Homo sapiens, UniProt Q9UQM7). The assay is described as follows: Inhibition of recombinant full length human His-tagged CAMK2alpha expressed in baculovirus expression system using serine/threonine-4 peptide as substrate incubated for 60 mins in presence of ATP by Z'-LYTE assay.
Assay [18] concerns the target Interleukin-1 receptor-associated kinase 4 (Homo sapiens, UniProt Q9NWZ3). In words: Inhibition of recombinant full length human His-tagged IRAK4 expressed in baculovirus expression system using serine/threonine-7 peptide as substrate incubated for 60 mins in presence of ATP by Z'-LYTE assay.
Assay [19] deals with Dual specificity mitogen-activated protein kinase kinase 2 (Homo sapiens, UniProt P36507). In words: Inhibition of recombinant full length human His-tagged MEK2 expressed in baculovirus expression system using serine/threonine-3 peptide as substrate incubated for 60 mins in presence of ATP by Z'-LYTE assay.
For assay [20], the target named is Dual specificity protein kinase CLK2 (Homo sapiens, UniProt P49760). In words: Inhibition of recombinant human GST-tagged CLK2 catalytic domain (137 to 498 residues) expressed in baculovirus expression system using serine/threonine-6 peptide as substrate incubated for 60 mins in presence of ATP by Z'-LYTE assay.
Assay [21] concerns the target Cathepsin G (Homo sapiens) (UniProt P08311). In words: Inhibition of endogenous human cathepsin G at 10 uM using Suc-Ala-Ala-Pro-Phe-AMC as substrate after 30 mins by spectrophotometric analysis relative to control.

Chain of Cyclin-dependent kinase 1/cyclin B1 (P06493 whole entry, the tested form may be a part): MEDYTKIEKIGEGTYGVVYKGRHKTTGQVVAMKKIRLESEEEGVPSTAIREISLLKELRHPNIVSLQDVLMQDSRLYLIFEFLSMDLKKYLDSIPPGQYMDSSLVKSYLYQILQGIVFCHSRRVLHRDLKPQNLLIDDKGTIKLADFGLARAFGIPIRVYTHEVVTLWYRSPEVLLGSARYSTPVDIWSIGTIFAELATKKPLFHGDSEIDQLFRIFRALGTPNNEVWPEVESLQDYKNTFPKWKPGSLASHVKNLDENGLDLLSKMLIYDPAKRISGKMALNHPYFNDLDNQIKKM
Chain of Cyclin-dependent kinase 1/cyclin B1 (P14635 whole entry, further chain, the tested form may be a part): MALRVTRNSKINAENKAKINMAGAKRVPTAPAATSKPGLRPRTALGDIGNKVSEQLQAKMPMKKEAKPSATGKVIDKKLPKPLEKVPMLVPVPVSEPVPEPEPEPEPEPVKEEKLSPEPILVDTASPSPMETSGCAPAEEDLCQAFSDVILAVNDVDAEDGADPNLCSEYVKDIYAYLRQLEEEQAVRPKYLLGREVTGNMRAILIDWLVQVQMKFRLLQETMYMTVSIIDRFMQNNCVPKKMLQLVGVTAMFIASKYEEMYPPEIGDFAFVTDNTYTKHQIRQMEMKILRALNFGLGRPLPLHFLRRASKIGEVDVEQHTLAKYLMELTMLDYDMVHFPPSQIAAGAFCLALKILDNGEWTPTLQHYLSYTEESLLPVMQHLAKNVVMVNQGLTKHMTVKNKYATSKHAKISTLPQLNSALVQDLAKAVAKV
Chain of Cytoplasmic tyrosine-protein kinase BMX (P51813 whole entry, the tested form may be a part): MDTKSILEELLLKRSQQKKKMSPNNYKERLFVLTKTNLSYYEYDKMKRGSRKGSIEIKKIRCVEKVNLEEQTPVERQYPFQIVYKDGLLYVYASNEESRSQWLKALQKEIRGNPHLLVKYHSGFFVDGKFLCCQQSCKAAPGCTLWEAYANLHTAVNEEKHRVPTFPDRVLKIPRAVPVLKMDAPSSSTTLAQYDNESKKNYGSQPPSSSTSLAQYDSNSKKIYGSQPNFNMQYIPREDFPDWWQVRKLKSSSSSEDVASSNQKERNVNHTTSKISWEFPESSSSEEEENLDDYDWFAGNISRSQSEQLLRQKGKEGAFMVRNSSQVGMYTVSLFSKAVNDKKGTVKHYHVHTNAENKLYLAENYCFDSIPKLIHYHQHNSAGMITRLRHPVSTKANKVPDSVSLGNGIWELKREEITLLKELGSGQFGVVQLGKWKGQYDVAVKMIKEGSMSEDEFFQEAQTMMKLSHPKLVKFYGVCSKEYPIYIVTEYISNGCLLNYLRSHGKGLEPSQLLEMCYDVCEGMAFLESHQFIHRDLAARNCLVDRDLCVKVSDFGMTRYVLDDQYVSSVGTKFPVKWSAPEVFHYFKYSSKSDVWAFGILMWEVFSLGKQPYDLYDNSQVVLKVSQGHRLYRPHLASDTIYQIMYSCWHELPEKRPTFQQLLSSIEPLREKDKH
Chain of Phosphorylase b kinase gamma catalytic chain, skeletal muscle/heart isoform (Q16816 whole entry, the tested form may be a part, canonical isoform): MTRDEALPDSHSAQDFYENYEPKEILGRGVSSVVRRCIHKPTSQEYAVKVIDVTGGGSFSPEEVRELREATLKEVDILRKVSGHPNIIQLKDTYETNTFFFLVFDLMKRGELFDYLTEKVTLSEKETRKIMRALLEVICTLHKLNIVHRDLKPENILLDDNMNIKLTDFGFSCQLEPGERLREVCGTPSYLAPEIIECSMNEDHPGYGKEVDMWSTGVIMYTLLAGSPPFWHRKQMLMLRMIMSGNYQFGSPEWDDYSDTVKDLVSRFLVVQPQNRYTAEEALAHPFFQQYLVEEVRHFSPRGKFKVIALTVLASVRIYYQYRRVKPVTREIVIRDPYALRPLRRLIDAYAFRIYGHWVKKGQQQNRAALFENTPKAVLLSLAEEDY
Chain of Interleukin-1 receptor-associated kinase 4 (Q9NWZ3 whole entry): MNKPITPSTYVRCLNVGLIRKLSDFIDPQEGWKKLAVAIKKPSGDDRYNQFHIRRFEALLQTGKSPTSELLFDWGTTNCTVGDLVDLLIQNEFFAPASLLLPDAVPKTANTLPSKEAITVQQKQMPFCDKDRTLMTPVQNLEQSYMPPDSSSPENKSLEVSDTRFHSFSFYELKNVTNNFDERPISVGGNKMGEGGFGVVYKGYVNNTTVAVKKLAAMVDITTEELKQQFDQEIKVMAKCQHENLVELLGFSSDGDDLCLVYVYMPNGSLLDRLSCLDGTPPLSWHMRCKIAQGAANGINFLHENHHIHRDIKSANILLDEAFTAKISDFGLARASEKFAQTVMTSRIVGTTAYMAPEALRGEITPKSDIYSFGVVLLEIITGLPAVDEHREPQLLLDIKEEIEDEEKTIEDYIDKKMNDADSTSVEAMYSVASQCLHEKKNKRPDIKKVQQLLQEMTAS
Chain of Leucine-rich repeat serine/threonine-protein kinase 2 (Q5S007 whole entry G2019S, the tested form may be a part): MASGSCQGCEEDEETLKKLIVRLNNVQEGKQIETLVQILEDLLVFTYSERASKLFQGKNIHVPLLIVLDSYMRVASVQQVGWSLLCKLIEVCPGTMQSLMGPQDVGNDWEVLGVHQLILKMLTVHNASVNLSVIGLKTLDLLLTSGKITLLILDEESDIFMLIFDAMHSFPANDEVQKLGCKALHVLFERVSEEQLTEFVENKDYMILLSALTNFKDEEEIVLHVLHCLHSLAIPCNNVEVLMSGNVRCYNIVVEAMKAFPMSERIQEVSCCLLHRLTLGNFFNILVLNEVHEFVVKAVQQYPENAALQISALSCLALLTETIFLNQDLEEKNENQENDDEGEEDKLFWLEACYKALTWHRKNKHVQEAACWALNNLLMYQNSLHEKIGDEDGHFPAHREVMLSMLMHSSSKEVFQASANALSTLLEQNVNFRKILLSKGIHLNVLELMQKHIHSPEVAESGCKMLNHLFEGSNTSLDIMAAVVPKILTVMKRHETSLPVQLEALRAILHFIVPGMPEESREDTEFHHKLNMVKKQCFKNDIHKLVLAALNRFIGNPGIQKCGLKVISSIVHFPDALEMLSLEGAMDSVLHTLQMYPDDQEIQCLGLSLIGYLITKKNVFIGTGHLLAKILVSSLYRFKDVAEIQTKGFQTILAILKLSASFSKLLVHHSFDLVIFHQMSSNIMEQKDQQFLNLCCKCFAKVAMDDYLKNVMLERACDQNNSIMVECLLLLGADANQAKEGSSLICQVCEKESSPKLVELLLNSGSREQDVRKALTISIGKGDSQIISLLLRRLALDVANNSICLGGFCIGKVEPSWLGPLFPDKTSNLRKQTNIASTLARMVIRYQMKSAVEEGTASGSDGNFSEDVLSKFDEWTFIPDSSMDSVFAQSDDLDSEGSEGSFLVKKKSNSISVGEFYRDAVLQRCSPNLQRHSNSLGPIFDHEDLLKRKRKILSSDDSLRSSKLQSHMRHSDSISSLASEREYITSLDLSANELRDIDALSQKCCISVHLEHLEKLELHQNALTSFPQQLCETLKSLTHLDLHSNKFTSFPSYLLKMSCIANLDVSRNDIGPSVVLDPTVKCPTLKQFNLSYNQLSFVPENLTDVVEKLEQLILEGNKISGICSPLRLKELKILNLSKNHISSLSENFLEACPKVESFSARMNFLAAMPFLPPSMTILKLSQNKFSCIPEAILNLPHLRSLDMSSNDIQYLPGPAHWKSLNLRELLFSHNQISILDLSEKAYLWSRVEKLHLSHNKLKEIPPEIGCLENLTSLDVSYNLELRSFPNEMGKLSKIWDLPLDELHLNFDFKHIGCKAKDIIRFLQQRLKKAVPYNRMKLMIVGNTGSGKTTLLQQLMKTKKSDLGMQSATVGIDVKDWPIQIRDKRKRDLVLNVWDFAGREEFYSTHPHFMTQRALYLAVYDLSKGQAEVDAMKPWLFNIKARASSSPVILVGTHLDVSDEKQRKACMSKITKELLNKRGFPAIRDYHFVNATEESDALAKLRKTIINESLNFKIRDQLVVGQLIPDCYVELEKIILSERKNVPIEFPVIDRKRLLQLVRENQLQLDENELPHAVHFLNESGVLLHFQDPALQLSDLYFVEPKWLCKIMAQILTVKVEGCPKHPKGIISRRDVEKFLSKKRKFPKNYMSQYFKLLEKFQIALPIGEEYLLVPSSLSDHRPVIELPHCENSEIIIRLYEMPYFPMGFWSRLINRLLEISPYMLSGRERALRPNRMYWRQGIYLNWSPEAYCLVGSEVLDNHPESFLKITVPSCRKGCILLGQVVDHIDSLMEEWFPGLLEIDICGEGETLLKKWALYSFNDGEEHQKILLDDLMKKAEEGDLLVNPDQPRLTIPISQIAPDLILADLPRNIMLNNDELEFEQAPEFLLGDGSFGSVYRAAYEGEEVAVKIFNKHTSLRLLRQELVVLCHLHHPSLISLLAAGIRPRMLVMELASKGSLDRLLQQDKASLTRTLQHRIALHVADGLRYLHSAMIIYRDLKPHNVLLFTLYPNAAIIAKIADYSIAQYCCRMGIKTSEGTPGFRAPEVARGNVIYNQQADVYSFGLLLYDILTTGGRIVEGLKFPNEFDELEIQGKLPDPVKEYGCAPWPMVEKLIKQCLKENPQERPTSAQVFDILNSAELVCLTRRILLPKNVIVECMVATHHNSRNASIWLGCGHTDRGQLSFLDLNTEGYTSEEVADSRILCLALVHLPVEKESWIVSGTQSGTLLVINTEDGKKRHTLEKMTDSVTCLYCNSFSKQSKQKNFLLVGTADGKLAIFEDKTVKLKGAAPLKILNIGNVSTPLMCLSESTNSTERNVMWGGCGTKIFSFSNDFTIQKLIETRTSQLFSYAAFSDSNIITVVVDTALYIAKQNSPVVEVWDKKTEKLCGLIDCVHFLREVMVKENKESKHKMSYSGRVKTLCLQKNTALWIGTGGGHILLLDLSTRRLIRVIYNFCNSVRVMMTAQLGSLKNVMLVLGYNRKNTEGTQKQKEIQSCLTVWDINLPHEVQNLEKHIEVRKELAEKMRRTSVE
Chain of Cathepsin G (Homo sapiens) (P08311 whole entry): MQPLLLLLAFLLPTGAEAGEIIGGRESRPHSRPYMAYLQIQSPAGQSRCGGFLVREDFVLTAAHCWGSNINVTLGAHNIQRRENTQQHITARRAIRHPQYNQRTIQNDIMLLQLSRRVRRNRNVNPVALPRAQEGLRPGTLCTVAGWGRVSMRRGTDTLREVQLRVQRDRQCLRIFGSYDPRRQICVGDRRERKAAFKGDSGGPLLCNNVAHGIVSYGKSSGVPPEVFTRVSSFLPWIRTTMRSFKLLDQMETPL

Consider `C[C@@H]1C[C@H]1C(=O)N1CCN(c2cnc(C#N)c(-c3cnn(C)c3)n2)C[C@H]1C`, for which the half-inhibitory concentration (IC50) (in assay [1]; in assay [2]; in [3]; at Sphingosine kinase 2; in assay [4]; at Rhodopsin kinase GRK7) was greater than 100 µM each time. Moreover, the IC50 in [5], in assay [6], in [7], in assay [8], in assay [9] and in assay [10] was greater than 100 µM in each case. Further, the IC50 in assay [13], in assay [15], in [17], in [18], in [19] and in [20] was greater than 100 µM in each case. Besides, the inhibition (usually the relative decrease from the control value, in per cent) was -2% in [11]; -3% in assay [12]; 8% in assay [14]; 1% in assay [16]; 6% in [21].
